Consider five compounds from patent publication US20040253206A1 (priority 1999, published 2004).

Like-named read-outs stand apart in the source and are kept apart here.

Data set [1] has as its system LCC6-WT breast carcinoma cell line. Kind of data set: Tumor cell growth inhibition (SRB), LCC6-WT. In kind it is cell-based, human. Conditions: read-out: IC50 (±S.E.) LCC6-WT. An excerpt: (§1) HT-1080 and HT-1080/DR4 (MRP/LRP positive) fibrosarcoma cell lines (1,2) were obtained from Dr. Y. Rustum, Roswell Park Cancer Institute, Buffalo, N.Y. The A121 ovarian cell line (3) was provided by Dr. Kent Crickard, Buffalo General Hospital, Buffalo, N.Y. The MDA435/LCC6-WT and MDR^1 transfected cell lines (4) were provided by Dr. R. Clarke, Lombardi Cancer Center, Georgetown University School of Medicine. Cell lines were propagated as monolayers in RPMI-1640 containing 5% FCS, 5% NuSerum IV, 20 mM HEPES, 2 mM L-glutamine at 37° C. in a 5% CO2 humidified atmosphere.
(§2) Paclitaxel, which was used for comparison purposes and is not a compound of the present invention, was provided by Dr. I. Ojima, SUNY at Stonybrook. […] Paclitaxel was solubilized in 100% DMSO. […] For the second experiment (Experiment 2), less concentrated stock solutions (0.4 mM) of each compound were prepared in sterile H2O acidified with 10% 1 N HCl. […] All compounds were further diluted in RPMI-1640 containing 10 mM HEPES.
(§3) Assessment of cell growth inhibition was determined in 96 well microtiter plates according to the method of Skehan et al., “New Colorimetric Cytotoxicity Assay for Anticancer-Drug Screening, Articles 82(13):1107-1112 (1990). Briefly, cells were plated with 400-1800 cells/well in 96 well plates and incubated at 37° C. 15-18 hr prior to drug addition to allow for cell attachment. Each cell line was exposed to 12 concentrations of compound (a 6 log range), 5 replicate data points per compound concentration. […] Assays were terminated with 100 μl of ice-cold 50% TCA. After 1 hr at 4° C., plates were washed 5 times with tap water to remove TCA, low-molecular-weight metabolites and serum proteins. 50 μl of 0.4% sulforhodamine B (SRB) was added to each well. Following a five minute incubation at room temperature, plates were rinsed 5 times with 0.1% acetic acid and air dried. Bound dye was solubilized with 10 mM Tris Base (pH 10.5) for 5 min on a gyratory shaker. Optical density was measured at 570 nm.
(§4) Data were fit with the Sigmoid-Emax concentration-effect model (N. H. G. Holford and L. B. Scheiner, “Understanding the dose-effect relationship: Clinical applications of pharmacokinetic-pharmacodynamic models,” Clin. Pharmacokin. 6:429-453 (1981)) with nonlinear regression, weighted by the reciprocal of the square of the predicted response. The fitting software was developed at RPCI with Microsoft FORTRAN, and uses Marquardt algorithm (D. W. Marquardt, “An algorithm for least squares estimation of nonlinear parameters,” J. Soc. Ind. Appl. Math. 11:431-441) as adapted by Nash (J. C. Nash, Compact Numerical Method for Computers: Linear Algebra and Function Minimization, New York: John Wiley & Sons, 1979) for the nonlinear regression.

Data set [2] concerns HT-1080 fibrosarcoma cell line. Kind of data set: Tumor cell growth inhibition (SRB), HT-1080. It counts as cell-based, human. Conditions: 72-96 h, read-out: IC50 (±S.E.) HT-1080.
Excerpt: as §1, §2, §3, §4

In data set [3] the test system is A121 ovarian carcinoma cell line. Kind of data set: Tumor cell growth inhibition (SRB), A121. In kind it is cell-based, human. Particulars: 72-96 h, read-out: IC50 (±S.E.) A121.
Excerpt: as §1, §2, §3, §4

Data set [4] has as its system HT-1080-DR4 doxorubicin selected MDR (MRP/LRP phenotype) fibrosarcoma cell line. Kind of data set: Tumor cell growth inhibition (SRB), HT-1080-DR4. In kind it is cell-based, human. Conditions: for Resistance ratio (IC50 resistant cell line/IC50 parental line) HT1080/DR4: HT1080/DR4 versus HT-1080, range over experiments; for IC50: 72-96 h, read-out: IC50 (±S.E.) HT-1080-DR4.
Excerpt: as §1, §2, §3, §4

The test system of data set [5] is LCC6-MDR1 PgP transfected breast carcinoma cell line. The experiment in a line: cells. Conditions: for Resistance ratio (IC50 resistant cell line/IC50 parental line) LCC6-MDR1: LCC6-MDR1 versus LCC6-WT, range over experiments.
Excerpt: as §1, §2, §3, §4

The nature of data set [6]: Storage stability of trifluoroacetate product fraction solutions (analytical HPLC). It counts as physicochemical.
Data set [7] in a line: Chemical hydrolysis in wet acetonitrile. In kind it is physicochemical. Conditions: ca. 1 mg/mL in wet acetonitrile, 26 days at room temperature. The method, then: A sample of solid acetate (Compound 4) was dissolved (ca. 1 mg/mL) in wet acetonitrile (nonanhydrous due to exposure to humid air).
For data set [8] the following is noted: Hande 1998; cited from earlier work.
The mark [9] stands for this setting: 4.0 mM stock solutions that had been stored at 4° C. for 7 days.
Setting [10] is: Experiment 1, TX-001/TX-002 from 4.0 mM stocks, 72-96 h.
Where [11] appears, read: Experiment 2, TX-001/TX-002 from 0.4 mM stocks, 72-96 h.
Where [12] appears, read: Experiment 1, TX-001/TX-002 from 4.0 mM stocks.
Setting [13] is: Experiment 2, TX-001/TX-002 from 0.4 mM stocks.

What is called IC50 is the point on the concentration scale where inhibition reaches its midpoint.

For the compound `CC(=O)O[C@H]1C(=O)[C@@]2(C)[C@H]([C@H](OC(=O)c3ccccc3)[C@]3(O)C[C@H](OC(=O)[C@H](O)[C@@H](NC(=O)c4ccccc4)c4ccccc4)C(C)=C1C3(C)C)[C@]1(OC(C)=O)CO[C@@H]1C[C@@H]2O` [Paclitaxel, reference compound], the IC50 was determined as 4.7 ± 0.5 nM in data set [1] (Homo sapiens, Breast carcinoma cell, Experiment 1, TX-001/TX-002 from 4.0 mM stocks, 72-96 h); 6 ± 2 nM in data set [1] (Homo sapiens, Breast carcinoma cell, Experiment 2, TX-001/TX-002 from 0.4 mM stocks, 72-96 h); 4.5 ± 0.2 nM in data set [2] (Homo sapiens, HT-1080, Experiment 1, TX-001/TX-002 from 4.0 mM stocks); 5.7 ± 0.3 nM in data set [2] (Homo sapiens, HT-1080, Experiment 2, TX-001/TX-002 from 0.4 mM stocks); 11 ± 0.5 nM in data set [3] (Homo sapiens, A121, Experiment 1, TX-001/TX-002 from 4.0 mM stocks); 14 ± 1.3 nM in data set [3] (Homo sapiens, A121, Experiment 2, TX-001/TX-002 from 0.4 mM stocks). Moreover, the IC50 in data set [4] (Homo sapiens, Experiment 1, TX-001/TX-002 from 4.0 mM stocks) stood at 4.9 ± 0.4 nM; in data set [4] (Homo sapiens, Experiment 2, TX-001/TX-002 from 0.4 mM stocks), 7.7 ± 0.1 nM; in data set [5] (Homo sapiens, LCC6MDR, read-out: IC50 (±S.E.) LCC6-MDR, Experiment 1, TX-001/TX-002 from 4.0 mM stocks, 72-96 h) it was 434 ± 28 nM; in data set [5] (Homo sapiens, LCC6MDR, read-out: IC50 (±S.E.) LCC6-MDR, Experiment 2, TX-001/TX-002 from 0.4 mM stocks, 72-96 h) it was 391 ± 52 nM. The “Resistance ratio (IC50 resistant cell line/IC50 parental line) HT1080/DR4” value in data set [4] is reported as 1.1-1.4 fold. Further, the “Resistance ratio (IC50 resistant cell line/IC50 parental line) LCC6-MDR1” value in data set [5] was 65-92 fold.

As for “2′-Succinamidyl-PEG2-amine-paclitaxel trifluoroacetate [Compound 3]”, the “average purity of product fraction solutions after storage” value in data set [6] (after storage at 8° C. for 16 days) is 97.4%. In data set [6] (preparative HPLC fraction solutions, before storage), the “average purity of product fraction solutions, initial” value is given as 98.8%.

`CC(=O)O.CC(=O)OC1C(=O)C2(C)C(O)CC3OCC3(OC(C)=O)C2C(OC(=O)c2ccccc2)C2(O)CC(OC(=O)C(OC(=O)CCC(=O)NCCOCCOCCN)C(NC(=O)c3ccccc3)c3ccccc3)C(C)=C1C2(C)C` (stereo not drawn) [TX-001, 2′-Succinamidyl-PEG2-amine-paclitaxel Acetate]: the IC50 in data set [1] (setting [9]) came out at 2.7 nM; in data set [1] (setting [10]) it was 4.9 ± 0.5 nM; in data set [1] (setting [11]) it was 13 ± 0.5 nM; in data set [2] (setting [12]), 4.5 ± 0.4 nM; in data set [2] (setting [13]), 19 ± 0.7 nM; in data set [3] (setting [12]), 13 ± 0.5 nM. The results for the IC50 in data set [3] (setting [13]), in data set [4] (setting [12]) and in data set [4] (setting [13]) were 37 ± 1.2 nM, 8.9 ± 0.4 nM and 36 ± 1.5 nM, respectively. Also, the chemical hydrolysis behavior result in data set [7] is reported as “converted quantitatively into paclitaxel”.

As to `COc1cc([C@@H]2c3cc4c(cc3[C@@H](O[C@@H]3O[C@@H]5CO[C@@H](C)O[C@H]5[C@H](O)[C@H]3O)[C@H]3COC(=O)[C@H]23)OCO4)cc(OC)c1O` [Etoposide], the solubility in water result in data set [8] is reported as “nearly insoluble in water”.

As to `CC(=O)O.CC(=O)OC1C(=O)C2(C)C(O)CC3OCC3(OC(C)=O)C2C(OC(=O)c2ccccc2)C2(O)CC(OC(=O)C(OC(=O)CCCC(=O)NCCOCCOCCN)C(NC(=O)c3ccccc3)c3ccccc3)C(C)=C1C2(C)C` (stereo not drawn) [TX-002, 2′-Glutaramidyl-PEG2-amine-paclitaxel acetate], the IC50 in data set [1] (setting [9]) was determined as 16 nM; in data set [1] (setting [10]), 18 ± 1.1 nM; in data set [1] (setting [11]), 38 ± 4.6 nM; in data set [2] (setting [12]), 22 ± 0.9 nM; in data set [2] (setting [13]), 49 ± 6.5 nM; in data set [3] (setting [12]), 48 ± 3 nM. Moreover, the 50% inhibitory concentration (IC50) in data set [3] (setting [13]) was determined as 171 ± 8.8 nM; in data set [4] (setting [12]) it was 32 ± 1.5 nM; in data set [4] (setting [13]) it was 54 ± 5.3 nM; in data set [5] (read-out: IC50 (±S.E.) LCC6-MDR, 4.0 mM stock solutions that had been stored at 4° C. for 7 days) it was 879 nM; in data set [5] (read-out: IC50 (±S.E.) LCC6-MDR, Experiment 1, TX-001/TX-002 from 4.0 mM stocks, 72-96 h), 1070 ± 45 nM; in data set [5] (read-out: IC50 (±S.E.) LCC6-MDR, Experiment 2, TX-001/TX-002 from 0.4 mM stocks, 72-96 h) it was 1800 ± 168 nM. For the same compound, the “Resistance ratio (IC50 resistant cell line/IC50 parental line) HT1080/DR4” value in data set [4] is given as 1.1-1.5 fold. Moreover, the “Resistance ratio (IC50 resistant cell line/IC50 parental line) LCC6-MDR1” value in data set [5] is 47-60 fold.
